We go through two molecules from patent publication US20020019991A1, “COMPOSITIONS CONTAINING AN ALPHA 1,2-FUCOSE LINKAGE AND USES THEREOF” (ABBOTT LABORATORIES, priority 1998, published 2002).

One test deals with V. cholerae. The test is described as follows: Competitive assay: inhibition of V. cholerae attachment to transfected CHO (α1-2 FT) cells, colony counting. The format is cell-based, Vibrio cholerae. The procedure: (§1) To determine whether 2′Fucosyllactose is an important chemical structure of the cell receptor for V. cholerae and enterohemorrhagic E. coli (EHEC), a competitive assay was set up. A volume of 400 ul of a suspension of transfected CHO (α1-2 FT) cells at a concentration of 4×10^5 cells/mL was placed in each well of an 8-well microchamber slide (Lab-Tek, Nunc, Inc. Naperville, Ill.). Cells were incubated overnight at 37° C. in a 5% CO2 atmosphere. A bacterial suspension of 1.5×10^8 of V. cholerae was added with either 0.5, 1, or 2 mg/mL of 2′fucosyllactose and incubated at 37° C. Wells were washed 6 times with PBS. Cells were detached with […] of triton x 100 and serial dilutions in TBS or McConkey agar plates were done for colony counting.

Test [1] has as its system enterohemorrhagic E. coli (EHEC). As to the kind of experiment: Competitive assay: inhibition of EHEC attachment to transfected CHO (α1-2 FT) cells, colony counting. It is filed as cell-based, Escherichia coli. As for the experimental part: as §1
Test [2] relates to Vibrio cholerae 01 Ogawa strain 2995. The format is binding.
Test [3] concerns Enteropathogenic E. coli (EPEC). It is filed as binding, Escherichia coli.
For test [4], the system named is Enterohemorrhagic Escherichia coli (EHEC) 0157:H7 strain 933. The format is binding.

With `C[C@@H]1O[C@@H](O[C@H]2[C@H](O[C@H]3[C@H](O)[C@@H](O)C(O)O[C@@H]3CO)O[C@H](CO)[C@H](O)[C@@H]2O)[C@@H](O)[C@H](O)[C@@H]1O` (some centres unmarked) [2′fucosyllactose, 2′-fucosyllactose (Fucα1-2Galβ1-4Glc)], the “dose dependence of inhibition of bacterial cell attachment” value is reported as “dose-dependent inhibition” in the test with V. cholerae (0.5, 1, or 2 mg/mL) and “dose-dependent inhibition” in test [1] (EHEC, 0.5, 1, or 2 mg/mL). In addition, the “inhibition of bacterial cell attachment” value was “significant inhibition” in the test on V. cholerae (transfected CHO (α1-2 FT) cells, concentration as low as 0.5 mg/ml) and “significant inhibition” in test [1] (EHEC, transfected CHO (α1-2 FT) cells, concentration as low as 0.5 mg/ml). For the same molecule, the “inhibition of binding, EHEC compared with V. cholerae” value in test [1] (EHEC versus V. cholerae, transfected CHO cells) is “greater inhibition”.

Regarding Lewis^x, the “binding of V. cholerae to immobilized blood group antigen neoglycoprotein” value in test [2] is listed as “stronger binding”. Besides, the “binding of EPEC to immobilized blood group antigen neoglycoprotein” value in test [3] is “stronger binding”. The “binding of EHEC to immobilized blood group antigen neoglycoprotein” value in test [4] is on record as “stronger binding”.
